Experimental data as given in patent US20110118262A1, “Pyrrolidinyl and Piperidinyl Compounds Useful as NHE-1 Inhibitiors” (BOEHRINGER INGELHEIM INTERNATIONAL GMBH, priority 2008, published 2011).

Biological target: T1, NHE-1 (Homo sapiens, UniProt P19634)
T1 construct: endogenous in cells; host or cells: HT-29
Assay: Evaluation of NHE-1 Inhibition (pHi) in HT-29 cells
Assay type: cell-based
Conditions: BCECF dye, 50% inhibition of the intracellular pH recovery, read-out: NHE1 HT29 pHi IC50
In short: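 Intracellular pH measured with BCECF in HT-29 cells after 24 h culture. Cells dye-loaded 30 min at 37° C, then acid-loaded with NH4Cl-containing choline buffer (pH 7.5) for 30 min at RT. Compounds added on an FDSS6000 fluorescence reader.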

T1 sequence (P19634 whole entry): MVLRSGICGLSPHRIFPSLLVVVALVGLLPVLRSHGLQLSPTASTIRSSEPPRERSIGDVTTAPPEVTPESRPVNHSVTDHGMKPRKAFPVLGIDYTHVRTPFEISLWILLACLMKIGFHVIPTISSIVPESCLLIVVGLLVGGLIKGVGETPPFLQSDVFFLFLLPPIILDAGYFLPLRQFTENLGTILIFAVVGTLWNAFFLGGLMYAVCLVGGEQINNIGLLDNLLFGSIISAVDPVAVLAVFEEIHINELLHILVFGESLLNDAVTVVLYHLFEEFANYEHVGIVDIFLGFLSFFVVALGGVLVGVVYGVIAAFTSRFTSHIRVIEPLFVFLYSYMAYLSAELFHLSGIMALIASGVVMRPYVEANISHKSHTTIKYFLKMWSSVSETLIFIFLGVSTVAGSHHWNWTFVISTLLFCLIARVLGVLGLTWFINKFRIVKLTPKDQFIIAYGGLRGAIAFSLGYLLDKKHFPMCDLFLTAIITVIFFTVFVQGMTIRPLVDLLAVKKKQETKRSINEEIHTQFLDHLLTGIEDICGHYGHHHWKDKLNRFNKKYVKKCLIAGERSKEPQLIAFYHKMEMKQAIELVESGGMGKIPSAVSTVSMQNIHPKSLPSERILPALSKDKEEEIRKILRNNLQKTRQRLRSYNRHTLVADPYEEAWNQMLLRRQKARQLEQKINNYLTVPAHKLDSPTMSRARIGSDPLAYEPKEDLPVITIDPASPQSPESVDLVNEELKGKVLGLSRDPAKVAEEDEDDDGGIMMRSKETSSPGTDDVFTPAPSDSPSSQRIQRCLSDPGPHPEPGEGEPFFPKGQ

Structure (SMILES)	IC50
COCC(=O)N1CCC(c2ccc(C(=O)NC(=N)N)cc2C(F)(F)F)CC1 [N-{4-[1-(2-Methoxy-acetyl)-piperidin-4-yl]-3-trifluoromethyl-benzoyl}-guanidine]	0.022 µM
COc1ncccc1C(=O)N1CCC(c2ccc(C(=O)NC(=N)N)cc2C(F)(F)F)CC1 [N-{4-[1-(2-Methoxy-pyridine-3-carbonyl)-piperidin-4-yl]-3-trifluoromethyl-benzoyl}-guanidine]	0.042 µM
Cc1ccccc1C(=O)N1CCC(c2ccc(C(=O)NC(=N)N)cc2C(F)(F)F)CC1 [N-{4-[1-(2-Methyl-benzoyl)-piperidin-4-yl]-3-trifluoromethyl-benzoyl}-guanidine]	0.051 µM
N=C(N)NC(=O)c1ccc(C2CCN(C(=O)CN3CCOCC3)CC2)c(C(F)(F)F)c1 [N-{4-[1-(2-Morpholin-4-yl-acetyl)-piperidin-4-yl]-3-trifluoromethyl-benzoyl}-guanidine]	0.025 µM
N=C(N)NC(=O)c1ccc(C2CCN(C(=O)Cc3cccnc3)CC2)c(C(F)(F)F)c1 [N-{4-[1-(2-Pyridin-3-yl-acetyl)-piperidin-4-yl]-3-trifluoromethyl-benzoyl}-guanidine]	0.027 µM
N=C(N)NC(=O)c1ccc(C2CCN(C(=O)CCN)CC2)c(C(F)(F)F)c1 [N-{4-[1-(3-Amino-propionyl)-piperidin-4-yl]-3-trifluoromethyl-benzoyl}-guanidine]	0.008 µM
N#Cc1cccc(C(=O)N2CCC(c3ccc(C(=O)NC(=N)N)cc3C(F)(F)F)CC2)c1 [N-{4-[1-(3-Cyano-benzoyl)-piperidin-4-yl]-3-trifluoromethyl-benzoyl}-guanidine]	0.065 µM
N=C(N)NC(=O)c1ccc(C2CCN(C(=O)c3cccc(F)c3)CC2)c(C(F)(F)F)c1 [N-{4-[1-(3-Fluoro-benzoyl)-piperidin-4-yl]-3-trifluoromethyl-benzoyl}-guanidine]	0.105 µM
COc1cc(C(=O)N2CCC(c3ccc(C(=O)NC(=N)N)cc3C(F)(F)F)CC2)ccc1-c1cccnc1 [N-{4-[1-(3-Methoxy-4-pyridin-3-yl-benzoyl)-piperidin-4-yl]-3-trifluoromethyl-benzoyl}-guanidine]	0.066 µM
COc1cccnc1C(=O)N1CCC(c2ccc(C(=O)NC(=N)N)cc2C(F)(F)F)CC1 [N-{4-[1-(3-Methoxy-pyridine-2-carbonyl)-piperidin-4-yl]-3-trifluoromethyl-benzoyl}-guanidine]	0.055 µM
Cn1cncc1C(=O)N1CCC(c2ccc(C(=O)NC(=N)N)cc2C(F)(F)F)CC1 [N-{4-[1-(3-Methyl-3H-imidazole-4-carbonyl)-piperidin-4-yl]-3-trifluoromethyl-benzoyl}-guanidine]	0.015 µM
CC(C)CC(=O)N1CCC(c2ccc(C(=O)NC(=N)N)cc2C(F)(F)F)CC1 [N-{4-[1-(3-Methyl-butyryl)-piperidin-4-yl]-3-trifluoromethyl-benzoyl}-guanidine]	0.049 µM
N=C(N)NC(=O)c1ccc(C2CCN(C(=O)c3cccc(-c4cnco4)c3)CC2)c(C(F)(F)F)c1 [N-{4-[1-(3-Oxazol-5-yl-benzoyl)-piperidin-4-yl]-3-trifluoromethyl-benzoyl}-guanidine]	0.014 µM
N=C(N)NC(=O)c1ccc(C2CCN(C(=O)c3cccc(-n4cccn4)c3)CC2)c(C(F)(F)F)c1 [N-{4-[1-(3-Pyrazol-1-yl-benzoyl)-piperidin-4-yl]-3-trifluoromethyl-benzoyl}-guanidine]	0.15 µM
N=C(N)NC(=O)c1ccc(C2CCN(C(=O)c3cccc(-c4ccccn4)c3)CC2)c(C(F)(F)F)c1 [N-{4-[1-(3-Pyridin-2-yl-benzoyl)-piperidin-4-yl]-3-trifluoromethyl-benzoyl}-guanidine]	0.147 µM
CS(=O)(=O)c1cc(C(=O)NC(=N)N)ccc1C1CCN(C(=O)c2cccc(C#N)c2)CC1 [N-{4-[1-(3-cyano-benzoyl)-piperidin-4-yl]-3-methanesulfonyl-benzoyl}-guanidine]	0.034 µM
Cc1cc(C2CCN(C(=O)c3cccc(C#N)c3)CC2)c(S(C)(=O)=O)cc1C(=O)NC(=N)N [N-{4-[1-(3-cyano-benzoyl)-piperidin-4-yl]-5-methanesulfonyl-2-methyl-benzoyl}-guanidine]	0.023 µM
N=C(N)NC(=O)c1ccc(C2=CCN(C(=O)c3cnc[nH]3)CC2)c(C(F)(F)F)c1 [N-{4-[1-(3H-Imidazole-4-carbonyl)-1,2,3,6-tetrahydro-pyridin-4-yl]-3-trifluoromethyl-benzoyl}-guanidine]	0.026 µM
N#Cc1ccc(C(=O)N2CCC(c3ccc(C(=O)NC(=N)N)cc3C(F)(F)F)CC2)cc1 [N-{4-[1-(4-Cyano-benzoyl)-piperidin-4-yl]-3-trifluoromethyl-benzoyl}-guanidine]	0.024 µM
CN(C)c1ccc(C(=O)N2CCC(c3ccc(C(=O)NC(=N)N)cc3C(F)(F)F)CC2)cc1 [N-{4-[1-(4-Dimethylamino-benzoyl)-piperidin-4-yl]-3-trifluoromethyl-benzoyl}-guanidine]	0.18 µM
N=C(N)NC(=O)c1ccc(C2CCN(C(=O)c3ccc(F)cc3C(F)(F)F)CC2)c(C(F)(F)F)c1 [N-{4-[1-(4-Fluoro-2-trifluoromethyl-benzoyl)-piperidin-4-yl]-3-trifluoromethyl-benzoyl}-guanidine]	0.35 µM
COc1cc(C2CCN(C(=O)c3ccc(F)cc3)CC2)c(C(F)(F)F)cc1C(=O)NC(=N)N [N-{4-[1-(4-Fluoro-benzoyl)-piperidin-4-yl]-2-methoxy-5-trifluoromethyl-benzoyl}-guanidine]	0.016 µM
CS(=O)(=O)c1cc(C(=O)NC(=N)N)ccc1C1CCN(C(=O)c2ccc(F)cc2)CC1 [N-{4-[1-(4-Fluoro-benzoyl)-piperidin-4-yl]-3-methanesulfonyl-benzoyl}-guanidine]	0.018 µM

The next lines start with the values.

IC50	Structure (SMILES)
0.04 µM	COc1cc(C(=O)N2CCC(c3ccc(C(=O)NC(=N)N)cc3C(F)(F)F)CC2)ccn1 [N-{4-[1-(2-Methoxy-pyridine-4-carbonyl)-piperidin-4-yl]-3-trifluoromethyl-benzoyl}-guanidine]
0.012 µM	CC1(C(=O)N2CCC(c3ccc(C(=O)NC(=N)N)cc3C(F)(F)F)CC2)CCCN1 (stereo not shown) [N-{4-[1-(2-Methyl-pyrrolidine-2-carbonyl)-piperidin-4-yl]-3-trifluoromethyl-benzoyl}-guanidine]
0.006 µM	Cc1cc(C2CCN(C(=O)CN(C)C)CC2)c(C(F)(F)F)cc1C(=O)NC(=N)N [N-{4-[1-(2-dimethylamino-acetyl)-piperidin-4-yl]-2-methyl-5-trifluoromethyl-benzoyl}-guanidine]
0.18 µM	N=C(N)NC(=O)c1ccc(C2CCN(C(=O)c3cccc(Br)c3)CC2)c(C(F)(F)F)c1 [N-{4-[1-(3-Bromo-benzoyl)-piperidin-4-yl]-3-trifluoromethyl-benzoyl}-guanidine]
0.019 µM	COc1cc(C2CCN(C(=O)c3cccc(C#N)c3)CC2)c(C(F)(F)F)cc1C(=O)NC(=N)N [N-{4-[1-(3-Cyano-benzoyl)-piperidin-4-yl]-2-methoxy-5-trifluoromethyl-benzoyl}-guanidine]
0.077 µM	CN(C)c1cccc(C(=O)N2CCC(c3ccc(C(=O)NC(=N)N)cc3C(F)(F)F)CC2)c1 [N-{4-[1-(3-Dimethylamino-benzoyl)-piperidin-4-yl]-3-trifluoromethyl-benzoyl}-guanidine]
0.01 µM	CN(C)CCC(=O)N1CCC(c2ccc(C(=O)NC(=N)N)cc2C(F)(F)F)CC1 [N-{4-[1-(3-Dimethylamino-propionyl)-piperidin-4-yl]-3-trifluoromethyl-benzoyl}-guanidine]
0.063 µM	CS(=O)(=O)c1cccc(C(=O)N2CCC(c3ccc(C(=O)NC(=N)N)cc3C(F)(F)F)CC2)c1 [N-{4-[1-(3-Methanesulfonyl-benzoyl)-piperidin-4-yl]-3-trifluoromethyl-benzoyl}-guanidine]
0.106 µM	COc1cccc(C(=O)N2CCC(c3ccc(C(=O)NC(=N)N)cc3C(F)(F)F)CC2)c1 [N-{4-[1-(3-Methoxy-benzoyl)-piperidin-4-yl]-3-trifluoromethyl-benzoyl}-guanidine]
0.02 µM	COCCC(=O)N1CCC(c2ccc(C(=O)NC(=N)N)cc2C(F)(F)F)CC1 [N-{4-[1-(3-Methoxy-propionyl)-piperidin-4-yl]-3-trifluoromethyl-benzoyl}-guanidine]
0.075 µM	N=C(N)NC(=O)c1ccc(C2CCN(C(=O)CCc3ccccc3)CC2)c(C(F)(F)F)c1 [N-{4-[1-(3-Phenyl-propionyl)-piperidin-4-yl]-3-trifluoromethyl-benzoyl}-guanidine]
0.14 µM	N=C(N)NC(=O)c1ccc(C2CCN(C(=O)c3cccc(-c4cccnc4)c3)CC2)c(C(F)(F)F)c1 [N-{4-[1-(3-Pyridin-3-yl-benzoyl)-piperidin-4-yl]-3-trifluoromethyl-benzoyl}-guanidine]
0.28 µM	N=C(N)NC(=O)c1ccc(C2CCN(C(=O)c3cccc(S(=O)(=O)C(F)(F)F)c3)CC2)c(C(F)(F)F)c1 [N-{4-[1-(3-Trifluoromethanesulfonyl-benzoyl)-piperidin-4-yl]-3-trifluoromethyl-benzoyl}-guanidine]
0.011 µM	N=C(N)NC(=O)c1ccc(C2CCN(C(=O)C3(N)CCS(=O)(=O)CC3)CC2)c(C(F)(F)F)c1 [N-{4-[1-(4-Amino-1,1-dioxo-hexahydro-g-thiopyran-4-carbonyl)-piperidin-4-yl]-3-trifluoromethyl-benzoyl}-guanidine]
0.018 µM	N=C(N)NC(=O)c1ccc(C2CCN(C(=O)C3(N)CCOCC3)CC2)c(C(F)(F)F)c1 [N-{4-[1-(4-Amino-tetrahydro-pyran-4-carbonyl)-piperidin-4-yl]-3-trifluoromethyl-benzoyl}-guanidine]
0.32 µM	N=C(N)NC(=O)c1ccc(C2CCN(C(=O)c3ccc(Cl)cc3)CC2)c(C(F)(F)F)c1 [N-{4-[1-(4-Chloro-benzoyl)-piperidin-4-yl]-3-trifluoromethyl-benzoyl}-guanidine]
0.007 µM	Cc1cc(C2CCN(C(=O)c3ccc(F)cc3)CC2)c(C(F)(F)F)cc1C(=O)NC(=N)N [N-{4-[1-(4-Fluoro-benzoyl)-piperidin-4-yl]-2-methyl-5-trifluoromethyl-benzoyl}-guanidine]
